pIC50: −log10 of the molar value. Blank lines part the entries; values can stand above or below the molecule they belong to.
System: 695427-040-R-J1-PDC complex spheroids, viability percent T/C
Experiment: Anticancer human tumor 695427-040-R-J1-PDC patient-derived colon adenocarcinoma cell line growth inhibition [GQUAD]
Conditions: for pIC50: curve of first compound; for viability, T/C: stronger effect = lower value
Outline: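 Viability of tumor cells grown as complex spheroids with endothelial and stromal cells, exposed to drug combinations. Top concentration at or near clinical Cmax (else 10 microM), diluted in half-log increments.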

[1] = second compound 0.0316 µM, first compound 0.0316 µM
[2] = second compound 0.0316 µM, first compound 0.1 µM
[3] = second compound 0.0316 µM, first compound 0.316 µM
[4] = second compound 0.0316 µM, first compound 1 µM
[5] = second compound 0.0316 µM, first compound 3.16 µM
[6] = second compound 0.0316 µM, first compound 10 µM
[7] = second compound 0.1 µM, first compound 0.0316 µM
[8] = second compound 0.1 µM, first compound 0.1 µM
[9] = second compound 0.1 µM, first compound 0.316 µM
[10] = second compound 0.1 µM, first compound 1 µM
[11] = second compound 0.1 µM, first compound 3.16 µM
[12] = second compound 0.1 µM, first compound 10 µM
[13] = second compound 0.316 µM, first compound 0.0316 µM
[14] = second compound 0.316 µM, first compound 0.1 µM
[15] = second compound 0.316 µM, first compound 0.316 µM
[16] = second compound 0.316 µM, first compound 1 µM
[17] = second compound 0.316 µM, first compound 3.16 µM
[18] = second compound 0.316 µM, first compound 10 µM
[19] = second compound 1 µM, first compound 0.0316 µM
[20] = second compound 1 µM, first compound 0.1 µM
[21] = second compound 1 µM, first compound 0.316 µM
[22] = second compound 1 µM, first compound 1 µM
[23] = second compound 1 µM, first compound 3.16 µM
[24] = second compound 1 µM, first compound 10 µM
[25] = second compound 3.16 µM, first compound 0.0316 µM
[26] = second compound 3.16 µM, first compound 0.1 µM
[27] = second compound 3.16 µM, first compound 0.316 µM
[28] = second compound 3.16 µM, first compound 1 µM
[29] = second compound 3.16 µM, first compound 3.16 µM
[30] = second compound 3.16 µM, first compound 10 µM
[31] = second compound 10 µM, first compound 0.0316 µM
[32] = second compound 10 µM, first compound 0.1 µM
[33] = second compound 10 µM, first compound 0.316 µM
[34] = second compound 10 µM, first compound 1 µM
[35] = second compound 10 µM, first compound 3.16 µM
[36] = second compound 10 µM, first compound 10 µM
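Further: spheroids exposed to compounds for seven days before readout.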

pIC50 (second compound 0.0316 µM): 5.82
pIC50 (second compound 0.1 µM): 5.70
pIC50 (second compound 0.316 µM): 5.72
pIC50 (second compound 1 µM): 6.25
pIC50 (second compound 3.16 µM): > 7.50
pIC50 (second compound 10 µM): > 7.50
SMILES: COc1cccc2c1C(=O)c1c(O)c3c(c(O)c1C2=O)CC(O)(C(=O)CO)CC3OC1CC(N)C(O)C(C)O1 (stereo unspecified) + Cc1cnc(CNC(=O)c2c(=O)c3ccc(N4CCCN(C)CC4)nc3n3c2sc2ccccc23)cn1
viability, T/C [1]: 96.5%
viability, T/C [2]: 68%
viability, T/C [3]: 70%
viability, T/C [4]: 56.8%
viability, T/C [5]: 38.7%
viability, T/C [6]: 40.4%
viability, T/C [7]: 86.3%
viability, T/C [8]: 70.6%
viability, T/C [9]: 85.3%
viability, T/C [10]: 62.3%
viability, T/C [11]: 45%
viability, T/C [12]: 38.4%
viability, T/C [13]: 72.2%
viability, T/C [14]: 69.8%
viability, T/C [15]: 64.9%
viability, T/C [16]: 60.4%
viability, T/C [17]: 42.4%
viability, T/C [18]: 34.4%
viability, T/C [19]: 60.2%
viability, T/C [20]: 56.8%
viability, T/C [21]: 59.6%
viability, T/C [22]: 41%
viability, T/C [23]: 34.2%
viability, T/C [24]: 24.2%
viability, T/C [25]: 43.8%
viability, T/C [26]: 55.6%
viability, T/C [27]: 48%
viability, T/C [28]: 28.1%
viability, T/C [29]: 28.9%
viability, T/C [30]: 14.9%
viability, T/C [31]: 32.1%
viability, T/C [32]: 45%
viability, T/C [33]: 43.5%
viability, T/C [34]: 26.4%
viability, T/C [35]: 20.2%
viability, T/C [36]: 3.89%

pIC50 (second compound 0.0316 µM): < 5.00
pIC50 (second compound 0.1 µM): < 5.00
pIC50 (second compound 0.316 µM): < 5.00
pIC50 (second compound 1 µM): < 5.00
pIC50 (second compound 3.16 µM): > 7.50
pIC50 (second compound 10 µM): > 7.50
SMILES: Nc1ccn(C2OC(CO)C(O)C2(F)F)c(=O)n1 (stereo unspecified) + Cc1cnc(CNC(=O)c2c(=O)c3ccc(N4CCCN(C)CC4)nc3n3c2sc2ccccc23)cn1
viability, T/C [1]: 91.9%
viability, T/C [2]: 81.2%
viability, T/C [3]: 73.6%
viability, T/C [4]: 49.4%
viability, T/C [5]: 55.1%
viability, T/C [6]: 53.9%
viability, T/C [7]: 93.8%
viability, T/C [8]: 72.5%
viability, T/C [9]: 65.9%
viability, T/C [10]: 52%
viability, T/C [11]: 56.4%
viability, T/C [12]: 61.3%
viability, T/C [13]: 70%
viability, T/C [14]: 66%
viability, T/C [15]: 61.7%
viability, T/C [16]: 64.8%
viability, T/C [17]: 64.2%
viability, T/C [18]: 53.5%
viability, T/C [19]: 60.6%
viability, T/C [20]: 55.2%
viability, T/C [21]: 54.9%
viability, T/C [22]: 52.8%
viability, T/C [23]: 56.4%
viability, T/C [24]: 54.6%
viability, T/C [25]: 42.7%
viability, T/C [26]: 50.9%
viability, T/C [27]: 54.3%
viability, T/C [28]: 47.3%
viability, T/C [29]: 46.4%
viability, T/C [30]: 36%
viability, T/C [31]: 35.1%
viability, T/C [32]: 41.7%
viability, T/C [33]: 40.1%
viability, T/C [34]: 29%
viability, T/C [35]: 36.7%
viability, T/C [36]: 29.8%

pIC50 (second compound 0.0316 µM): < 5.00
pIC50 (second compound 0.1 µM): < 5.00
pIC50 (second compound 0.316 µM): < 5.00
pIC50 (second compound 1 µM): < 5.00
pIC50 (second compound 3.16 µM): > 7.50
pIC50 (second compound 10 µM): > 7.50
SMILES: O=c1[nH]cc(F)c(=O)[nH]1 + Cc1cnc(CNC(=O)c2c(=O)c3ccc(N4CCCN(C)CC4)nc3n3c2sc2ccccc23)cn1
viability, T/C [1]: 108%
viability, T/C [2]: 70.6%
viability, T/C [3]: 70.8%
viability, T/C [4]: 69.7%
viability, T/C [5]: 76%
viability, T/C [6]: 105%
viability, T/C [7]: 94.2%
viability, T/C [8]: 79.4%
viability, T/C [9]: 72.4%
viability, T/C [10]: 74.9%
viability, T/C [11]: 94.2%
viability, T/C [12]: 97.5%
viability, T/C [13]: 83.6%
viability, T/C [14]: 67.5%
viability, T/C [15]: 80.9%
viability, T/C [16]: 67.9%
viability, T/C [17]: 86.4%
viability, T/C [18]: 85.8%
viability, T/C [19]: 77.8%
viability, T/C [20]: 58%
viability, T/C [21]: 63.8%
viability, T/C [22]: 71.4%
viability, T/C [23]: 80.1%
viability, T/C [24]: 77.6%
viability, T/C [25]: 44.9%
viability, T/C [26]: 53.1%
viability, T/C [27]: 59.9%
viability, T/C [28]: 45.3%
viability, T/C [29]: 72.2%
viability, T/C [30]: 54.3%
viability, T/C [31]: 28.3%
viability, T/C [32]: 54.2%
viability, T/C [33]: 48.8%
viability, T/C [34]: 43.8%
viability, T/C [35]: 54.6%
viability, T/C [36]: 49.9%

Reference: PubChem BioAssay AID2060492 (Molecular Pharmacology Branch, DTP, NCI, 2025)
